In patent US20210177803A1, “NEW PHARMACEUTICAL USE FOR THE TREATMENT OF HEART FAILURE” (Novartis AG, priority 2018, published 2021):

Legend:
[1] = system: patients hospitalized for acute HFrEF; test: PIONEER-HF study: clinical outcomes; assay type: in vivo, human; conditions: 8 weeks; LCZ696 n = 440, enalapril n = 441
Method: The study rational and design is described in by Velazquez E J, et al. .in Am.
(§1) The starting dose and all subsequent doses were selected to optimize the highest tolerated dose based on a systolic blood pressure (SBP) algorithm.
(§2) Inclusion Criteria: • Patients ≥18 y of age with the capacity to provide written informed consent. • Currently hospitalized for a primary diagnosis of HF, including symptoms and signs of fluid overload. • Eligible patients will be randomized no earlier than 24 hours and up to ten days after presentation while still hospitalized as long as meet the following definition of stable status: • SBP≥100 mm Hg for the preceding 6 hours prior to randomization; no symptomatic hypotension • No increase (intensification) in i.v. diuretic dose within last 6 hours prior to randomization • No i.v. inotropic drugs for 24 hours prior to randomization • No i.v. vasodilators including nitrates within last 6 hours prior to randomization • Left ventricular EF 40% within the past 6 m (including current hospitalization) using echocardiography, multi gated acquisition scan (MUGA), CT scanning, MRI or ventricular angiography, provided no subsequent study documented an EF of >40% • Elevated NT-proBNP≥1600 pg/mL OR BNP≥400 pg/mL during current hospitalization.

[2] = system: patients hospitalized for acute HFrEF
Method: as §1, §2

SMILES: CCOC(=O)[C@H](CCc1ccccc1)N[C@@H](C)C(=O)N1CCC[C@H]1C(=O)O [enalapril, reference compound]
- Additional HF drug [1]: 83 (18.8) number (%)
- Composite (death, rehospitalization for HF, LVAD implantation, or listing for cardiac transplant) [1]: 74 (16.8) number (%)
- Death [1]: 15 (3.4) number (%)
- Expanded composite (composite plus unplanned outpatient visits requiring IV diuretics, or increase >50% in diuretic dose) [1]: 275 (62.4) number (%)
- HF rehospitalization [1]: 61 (13.8) number (%)
- Increase in diuretic dose >50% [1]: 239 (54.2) number (%)
- LVAD implantation [1]: 1 (0.2) number (%)
- Listing for cardiac transplant [1]: 0 (0.0) number (%)
- Unplanned outpatient visits requiring intravenous diuretics [1]: 2 (0.5) number (%)
- Hyperkalemia ([2]; 8 weeks): 9.3%
- Symptomatic hypotension ([2]; 8 weeks): 9.1%
- Worsening renal function ([2]; 8 weeks): 14.7%
- Angioedema in patients who identified as black (in words) ([2]; black patients): angioedema were observed
- Angioedema events (number in words) ([2]; blinded adjudication): six
- Angioedema ([2]; blinded adjudication, 8 weeks): 1.4%
- Patients in whom the maximum target dose had been achieved ([2]; by the week 8 study visit): 62%
- Study drug prematurely discontinued prior to 8 weeks ([2]; excluding discontinuation due to death): 20.3%
